Test results taken from the supplement of paper PMC10883282.
± gives the standard deviation of the averaged measurements.

How the values were obtained:
Experiment in all cases: relative viability vs DMSO control (72 h) (fraction); higher = more viable cells
A204 = test system: A204
Summary of the method: (§1)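 Plates held 72 h at 37 °C and 5% CO2 contained sarcoma cell lines seeded in 384-well format to reach 80–90% confluence, plus 2.5 µl of serially diluted compound added after 24 h. Source plate concentrations ran from 10 mM to 0.0002 mM, with 0.1% DMSO as vehicle and a 5 µM positive control. Percent growth from ATPLite readings, averaged over up to triplicate wells, gave relative viability. Values were rescaled with 1 as full and 0 as none.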

G401 = test system: G401
Summary of the method: as §1

HS729 = test system: HS729
Summary of the method: as §1

KHOS-240S = test system: KHOS-240S
Summary of the method: as §1

MES-SA = test system: MES-SA
Summary of the method: as §1

SK-ES-1 = test system: SK-ES-1
Summary of the method: as §1

SK-LMS-1 = test system: SK-LMS-1
Summary of the method: as §1

SW1353 = test system: SW1353
Summary of the method: as §1

SW684 = test system: SW684
Summary of the method: as §1

SW872 = test system: SW872
Summary of the method: as §1

SW982 = test system: SW982
Summary of the method: as §1

SYO-1 = test system: SYO-1
Summary of the method: as §1

CCc1cnn2c(NCc3ccc[n+]([O-])c3)cc(N3CCCC[C@H]3CCO)nc12 [Dinaciclib]
Conditions	relative viability
A204, 0.00017 µM	0.998 ± 0.031
A204, 0.00051 µM	1.02 ± 0.051
A204, 0.00152 µM	0.9831 ± 0.0034
A204, 0.00457 µM	0.913 ± 0.063
A204, 0.01372 µM	0.482 ± 0.0053
A204, 0.04115 µM	0.247 ± 0.09
A204, 0.1235 µM	0.235 ± 0.065
A204, 0.3704 µM	0.199 ± 0.013
A204, 1.111 µM	0.187 ± 0.0096
A204, 3.333 µM	0.179 ± 0.0083
A204, 10 µM	0.18 ± 0.021
G401, 0.00017 µM	0.997 ± 0.03
G401, 0.00051 µM	0.974 ± 0.067
G401, 0.00152 µM	0.989 ± 0.071
G401, 0.00457 µM	0.915 ± 0.034
G401, 0.01372 µM	0.46 ± 0.056
G401, 0.04115 µM	0.089 ± 0.0047
G401, 0.1235 µM	0.0853 ± 0.0024
G401, 0.3704 µM	0.0974 ± 0.0011
G401, 1.111 µM	0.0916 ± 0.0065
G401, 3.333 µM	0.0843 ± 0.0081
G401, 10 µM	0.072 ± 0.0028
HS729, 0.00017 µM	1.05 ± 0.042
HS729, 0.00051 µM	1.08 ± 0.052
HS729, 0.00152 µM	1.09 ± 0.07
HS729, 0.00457 µM	1.06 ± 0.033
HS729, 0.01372 µM	1.03 ± 0.039
HS729, 0.04115 µM	0.396 ± 0.033
HS729, 0.1235 µM	0.378 ± 0.01
HS729, 0.3704 µM	0.397 ± 0.026
HS729, 1.111 µM	0.386 ± 0.015
HS729, 3.333 µM	0.371 ± 0.024
HS729, 10 µM	0.332 ± 0.018
KHOS-240S, 0.00017 µM	0.954 ± 0.059
KHOS-240S, 0.00051 µM	0.976 ± 0.019
KHOS-240S, 0.00152 µM	0.966 ± 0.019
KHOS-240S, 0.00457 µM	0.913 ± 0.042
KHOS-240S, 0.01372 µM	0.45 ± 0.015
KHOS-240S, 0.04115 µM	0.214 ± 0.015
KHOS-240S, 0.1235 µM	0.207 ± 0.0036
KHOS-240S, 0.3704 µM	0.21 ± 0.013
KHOS-240S, 1.111 µM	0.218 ± 0.0076
KHOS-240S, 3.333 µM	0.213 ± 0.018
KHOS-240S, 10 µM	0.181 ± 0.0099
MES-SA, 0.00017 µM	0.994 ± 0.056
MES-SA, 0.00051 µM	1.04 ± 0.032
MES-SA, 0.00152 µM	0.957 ± 0.024
MES-SA, 0.00457 µM	0.912 ± 0.015
MES-SA, 0.01372 µM	0.383 ± 0.044
MES-SA, 0.04115 µM	0.0374 ± 0.0044
MES-SA, 0.1235 µM	0.0354 ± 0.0037
MES-SA, 0.3704 µM	0.0357 ± 0.0044
MES-SA, 1.111 µM	0.0288 ± 0.0057
MES-SA, 3.333 µM	0.0272 ± 0.0025
MES-SA, 10 µM	0.0262 ± 0.0046
SK-ES-1, 0.00017 µM	0.939 ± 0.051
SK-ES-1, 0.00051 µM	1 ± 0.021
SK-ES-1, 0.00152 µM	0.939 ± 0.07
SK-ES-1, 0.00457 µM	0.79 ± 0.098
SK-ES-1, 0.01372 µM	0.411 ± 0.026
SK-ES-1, 0.04115 µM	0.0163 ± 0.00021
SK-ES-1, 0.1235 µM	0.0154 ± 0.0012
SK-ES-1, 0.3704 µM	0.00863 ± 0.00038
SK-ES-1, 1.111 µM	0.00557 ± 0.00021
SK-ES-1, 3.333 µM	0.000967 ± 0.00067
SK-ES-1, 10 µM	-0.000867 ± 0.0013
SK-LMS-1, 0.00017 µM	1.06 ± 0.042
SK-LMS-1, 0.00051 µM	1.05 ± 0.047
SK-LMS-1, 0.00152 µM	1.07 ± 0.052
SK-LMS-1, 0.00457 µM	1.03 ± 0.038
SK-LMS-1, 0.01372 µM	0.817 ± 0.041
SK-LMS-1, 0.04115 µM	0.325 ± 0.03
SK-LMS-1, 0.1235 µM	0.309 ± 0.022
SK-LMS-1, 0.3704 µM	0.333 ± 0.014
SK-LMS-1, 1.111 µM	0.341 ± 0.023
SK-LMS-1, 3.333 µM	0.34 ± 0.017
SK-LMS-1, 10 µM	0.353 ± 0.013
SW684, 0.00017 µM	0.96 ± 0.011
SW684, 0.00051 µM	1.01 ± 0.021
SW684, 0.00152 µM	1.02 ± 0.04
SW684, 0.00457 µM	0.964 ± 0.028
SW684, 0.01372 µM	0.669 ± 0.14
SW684, 0.04115 µM	0.713 ± 0.092
SW684, 0.1235 µM	0.71 ± 0.041
SW684, 0.3704 µM	0.713 ± 0.017
SW684, 1.111 µM	0.689 ± 0.015
SW684, 3.333 µM	0.7 ± 0.021
SW684, 10 µM	0.71 ± 0.03
SW872, 0.00017 µM	1.01 ± 0.036
SW872, 0.00051 µM	1.01 ± 0.043
SW872, 0.00152 µM	1.01 ± 0.047
SW872, 0.00457 µM	1.03 ± 0.025
SW872, 0.01372 µM	0.947 ± 0.062
SW872, 0.04115 µM	0.412 ± 0.03
SW872, 0.1235 µM	0.279 ± 0.01
SW872, 0.3704 µM	0.268 ± 0.017
SW872, 1.111 µM	0.259 ± 0.011
SW872, 3.333 µM	0.256 ± 0.0063
SW872, 10 µM	0.245 ± 0.0094
SW982, 0.00017 µM	0.9568 ± 0.0059
SW982, 0.00051 µM	0.98 ± 0.01
SW982, 0.00152 µM	0.984 ± 0.022
SW982, 0.00457 µM	0.962 ± 0.085
SW982, 0.01372 µM	0.566 ± 0.021
SW982, 0.04115 µM	0.223 ± 0.016
SW982, 0.1235 µM	0.239 ± 0.0083
SW982, 0.3704 µM	0.269 ± 0.0088
SW982, 1.111 µM	0.267 ± 0.0062
SW982, 3.333 µM	0.25 ± 0.01
SW982, 10 µM	0.227 ± 0.012
SW1353, 0.00017 µM	1.05 ± 0.028
SW1353, 0.00051 µM	1.08 ± 0.061
SW1353, 0.00152 µM	1.07 ± 0.04
SW1353, 0.00457 µM	1.07 ± 0.054
SW1353, 0.01372 µM	0.944 ± 0.029
SW1353, 0.04115 µM	0.238 ± 0.006
SW1353, 0.1235 µM	0.238 ± 0.0093
SW1353, 0.3704 µM	0.242 ± 0.016
SW1353, 1.111 µM	0.235 ± 0.0046
SW1353, 3.333 µM	0.234 ± 0.0038
SW1353, 10 µM	0.219 ± 0.0075
SYO-1, 0.00017 µM	0.982 ± 0.013
SYO-1, 0.00051 µM	0.998 ± 0.029
SYO-1, 0.00152 µM	0.982 ± 0.011
SYO-1, 0.00457 µM	0.908 ± 0.069
SYO-1, 0.01372 µM	0.28 ± 0.03
SYO-1, 0.04115 µM	0.248 ± 0.031
SYO-1, 0.1235 µM	0.256 ± 0.011
SYO-1, 0.3704 µM	0.294 ± 0.049
SYO-1, 1.111 µM	0.288 ± 0.057
SYO-1, 3.333 µM	0.295 ± 0.04
SYO-1, 10 µM	0.305 ± 0.047
